Structures are written as SMILES. pKi: −log10 of the molar value.

This assay deals with induction of TAT by dexamethasone in HepG2 cells. Briefly: Hep G2 TAT assay (inhibition of dexamethasone-induced TAT). It counts as cell-based, human. The conditions noted are these: challenge of 100 nM dexamethasone, IC50 converted to Ki by Cheng and Prusoff equation. As for the experimental part:
Glucocorticoid mediated activation of TAT occurs by transactivation of glucocorticoid response elements in the TAT promoter by glucocorticoid receptor-agonist complex. The following protocol describes an assay for measuring induction of TAT by dexamethasone in HepG2 cells (a human liver hepatocellular carcinoma cell line; ECACC, UK).
TAT activity was measured as outlined in the literature by A. Ah et al., J. Med. Chem., 2004, 47, 2441-2452.
HepG2 cells were cultured using MEME media supplemented with 10% (v/v) foetal bovine serum; 2 mM L-glutamine and 1% (v/v) NEAA at 37° C., 5%/95% (v/v) CO2/air. The HepG2 cells were counted and adjusted to yield a density of 0.125×10^6 cells/ml in RPMI 1640 without phenol red, 10% (v/v) charcoal stripped FBS, 2 mM L-glutamine and seeded at 25,000 cells/well in 200 μl into 96 well, sterile, tissue culture micro titre plates, and incubated at 37° C., 5% CO2 for 24 hours
Growth media was removed and replaced with assay media {RPMI 1640 without phenol red, 2 mM L-glutamine+10 μM forskolin}. Test compounds were screened against a challenge of 100 nM dexamethasone. Compounds were serially half log diluted in 100% (v/v) dimethylsulphoxide from a 10 mM stock.
Test compounds were pre-incubated with cells in micro-titre plates for 30 minutes at 37° C., 5/95 (v/v) CO2/air, before the addition of 100 nM dexamethasone and then subsequently for 20 hours to allow optimal TAT induction.
HepG2 cells were then lysed with 30 μl of cell lysis buffer containing a protease inhibitor cocktail for 15 minutes at 4° C. […] After 2 hours incubation at 37° C. the reaction was terminated by the addition of 15 μl of 10M aqueous potassium hydroxide solution, and the plates incubated for a further 30 minutes at 37° C. The TAT activity product was measured by absorbance at λ 340 nm.
[compound] and fitting the data to a 4 parameter logistic equation. IC50 values were converted to Ki (equilibrium dissociation constant) using the Cheng and Prusoff equation, assuming the antagonists were competitive inhibitors with respect to dexamethasone.
A word on the pKi: it is the Ki on a negative log10 scale, so that one unit is a factor of ten. The low end stands for a high Ki, the high end for a low Ki. Molecule `CCCn1cc(S(=O)(=O)N2CCC(Cc3ccccc3)(c3ccc4c(cnn4-c4ccc(F)cc4)c3)C2)cn1` (stereo not shown) [Example 159] showed a pKi of 7.00.

`Cc1cc2c(cnn2-c2ccc(F)cc2)cc1C1(Cc2cncs2)CCN(S(=O)(=O)c2cnn(C)c2)C1` (stereo not shown) [Example 179]: the pKi was 6.48.

Turning to `Cc1cc2c(cnn2-c2ccc(F)cc2)cc1C1(Cc2cncs2)CCN(S(C)(=O)=O)C1` (stereo not shown) [Example 180], the pKi is 6.09.

On to `CS(=O)(=O)N1CCC(Cc2ccccc2)(c2cc3cnn(-c4ccc(F)cc4)c3cc2F)C1` (stereo not shown) [Example 181], for which the pKi was 6.78.

`Cc1cc2c(cnn2-c2ccc(F)cc2)cc1C1(Cc2ccc3c(c2)nnn3C)CCN(S(C)(=O)=O)C1` (stereo not shown) [Example 183] gave a pKi of 6.74.

Consider `C#CCC1(c2cc3cnn(-c4ccc(F)cc4)c3cc2C)CCN(S(C)(=O)=O)C1` (stereo not shown) [Example 184], for which the pKi was 6.60.

In the case of `C#CCC1(c2cc3cnn(-c4ccc(F)cc4)c3cc2C)CCN(S(=O)(=O)c2cnn(C)c2)C1` (stereo not shown) [Example 185], the pKi was 6.79.

With `C#CCC1(c2cc3cnn(-c4ccc(F)cc4)c3cc2C)CCN(S(=O)(=O)c2cnn(CCC)c2)C1` (stereo not shown) [Example 186], the pKi is 7.43.

Take `Cc1cc2c(cnn2-c2ccc(F)cc2)cc1C1(Cc2nccs2)CCN(S(C)(=O)=O)C1` (stereo not shown) [Example 187]: the pKi was 6.70.

On to `Cc1cc2c(cnn2-c2ccc(F)cc2)cc1C1(Cc2nccs2)CCN(S(=O)(=O)c2cnn(C)c2)C1` (stereo not shown) [Example 188], for which the pKi is 6.76.

In turn, `Cc1cc2c(cnn2-c2ccc(F)cc2)cc1C1(Cc2ccccc2)CCN(C(=O)c2ccnnc2)C1` (stereo not shown) [Example 195, (3-benzyl-3-(1-(4-fluorophenyl)-6-methyl-1H-indazol-5-yl)pyrrolidin-1-yl)(pyridazin-4-yl)methanone] showed a pKi of 7.15.

In the case of `Cc1cc2c(cnn2-c2ccc(F)cc2)cc1C1(Cc2ccccc2)CCN(C(=O)c2cncnc2)C1` (stereo not shown) [Example 196, (3-benzyl-3-(1-(4-fluorophenyl)-6-methyl-1H-indazol-5-yl)pyrrolidin-1-yl)(pyrimidin-5-yl)methanone], the pKi was 7.10.

Molecule `Cc1cc(CC(=O)N2CCC(Cc3ccccc3)(c3cc4cnn(-c5ccc(F)cc5)c4cc3C)C2)on1` (stereo not shown) [Example 197, 1-(3-benzyl-3-(1-(4-fluorophenyl)-6-methyl-1H-indazol-5-yl)pyrrolidin-1-yl)-2-(3-methylisoxazol-5-yl)ethan-1-one] had a pKi of 7.19.

Regarding `Cc1cc2c(cnn2-c2ccc(F)cc2)cc1C1(Cc2ccccc2)CCN(C(=O)Cc2noc3ccccc23)C1` (stereo not shown) [Example 198, 2-(benzo[d]isoxazol-3-yl)-1-(3-benzyl-3-(1-(4-fluorophenyl)-6-methyl-1H-indazol-5-yl)pyrrolidin-1-yl)ethan-1-one], the pKi is 7.52.

For the molecule `COc1cc(OCCCC(=O)N2CCC(Cc3ccccc3)(c3cc4cnn(-c5ccc(F)cc5)c4cc3C)C2)ccc1CO` (stereo not shown) [Example 199, 1-(3-benzyl-3-(1-(4-fluorophenyl)-6-methyl-1H-indazol-5-yl)pyrrolidin-1-yl)-4-(4-(hydroxymethyl)-3-methoxyphenoxy)butan-1-one], the pKi is 7.48.

`Cc1cc2c(cnn2-c2ccc(F)cc2)cc1C1(Cc2ccccc2)CCN(C(=O)c2cc(CO)ccn2)C1` (stereo not shown) [Example 200, (3-benzyl-3-(1-(4-fluorophenyl)-6-methyl-1H-indazol-5-yl)pyrrolidin-1-yl)(4-(hydroxymethyl)pyridin-2-yl)methanone] gave a pKi of 7.23.

`COc1ccccc1-c1noc(CCC(=O)N2CCC(Cc3ccccc3)(c3cc4cnn(-c5ccc(F)cc5)c4cc3C)C2)n1` (stereo not shown) [Example 201, 1-(3-benzyl-3-(1-(4-fluorophenyl)-6-methyl-1H-indazol-5-yl)pyrrolidin-1-yl)-3-(3-(2-methoxyphenyl)-1,2,4-oxadiazol-5-yl)propan-1-one]: the negative logarithm of the Ki (pKi) is 7.32.

As for `Cc1cc2c(cnn2-c2ccc(F)cc2)cc1C1(Cc2ccccc2)CCN(C(=O)Cc2csc3ccccc23)C1` (stereo not shown) [Example 202, 2-(benzo[b]thiophen-3-yl)-1-(3-benzyl-3-(1-(4-fluorophenyl)-6-methyl-1H-indazol-5-yl)pyrrolidin-1-yl)ethan-1-one], the pKi is 7.17.

`Cc1cc2c(cnn2-c2ccc(F)cc2)cc1C1(Cc2ccccc2)CCN(C(=O)c2ccsc2)C1` (stereo not shown) [Example 203, (3-benzyl-3-(1-(4-fluorophenyl)-6-methyl-1H-indazol-5-yl)pyrrolidin-1-yl)(thiophen-3-yl)methanone] had a negative logarithm of the Ki (pKi) of 7.68.

Regarding `Cc1cc2c(cnn2-c2ccc(F)cc2)cc1C1(Cc2ccccc2)CCN(S(=O)(=O)c2cn(C)cn2)C1` (stereo not shown) [Example 210, 5-(3-benzyl-1-((1-methyl-1H-imidazol-4-yl)sulfonyl)pyrrolidin-3-yl)-1-(4-fluorophenyl)-6-methyl-1H-indazole], the pKi is 7.39.

In turn, `Cc1cc2c(cnn2-c2ccc(F)cc2)cc1C1(CC#Cc2ccccc2)CCN(S(=O)(=O)c2cnn(C)c2)C1` (stereo not shown) [Example 211, 1-(4-fluorophenyl)-6-methyl-5-(1-((1-methyl-1H-pyrazol-4-yl)sulfonyl)-3-(3-phenylprop-2-yn-1-yl)pyrrolidin-3-yl)-1H-indazole] had a pKi of 7.33.

Consider `COc1cc2c(cnn2-c2ccc(F)cc2)cc1C1(Cc2ccc(F)cc2)CCN(S(=O)(=O)c2cn(C)cn2)C1` (stereo not shown) [Example 216, 5-(3-(4-fluorobenzyl)-1-((1-methyl-1H-imidazol-4-yl)sulfonyl)pyrrolidin-3-yl)-1-(4-fluorophenyl)-6-methoxy-1H-indazole], for which the pKi was 7.28.

On to `COc1cc2c(cnn2-c2ccc(F)cc2)cc1C1(Cc2ccc(F)cc2)CCN(S(=O)(=O)C2CC2)C1` (stereo not shown) [Example 220, 5-(1-(cyclopropylsulfonyl)-3-(4-fluorobenzyl)pyrrolidin-3-yl)-1-(4-fluorophenyl)-6-methoxy-1H-indazole], for which the pKi was 7.62.

In turn, `CCCn1cc(S(=O)(=O)N2CCC(Cc3ccccc3)(c3cc4cnn(-c5ccc(F)cc5)c4cc3Cl)C2)cn1` (stereo not shown) [Example 224, 5-(3-benzyl-1-((1-propyl-1H-pyrazol-4-yl)sulfonyl)pyrrolidin-3-yl)-6-chloro-1-(4-fluorophenyl)-1H-indazole] had a pKi of 7.68.

In turn, `Cc1ncc(CC2(c3cc4cnn(-c5ccc(F)cc5)c4cc3C)CCN(S(=O)(=O)c3cnn(C)c3)C2)s1` (stereo not shown) [Example 227, 5-((3-(1-(4-fluorophenyl)-6-methyl-1H-indazol-5-yl)-1-((1-methyl-1H-pyrazol-4-yl)sulfonyl)pyrrolidin-3-yl)methyl)-2-methylthiazole] had a pKi of 6.46.

As to `O=C1CC(Cc2ccccc2)(c2cc3cnn(-c4ccc(F)cc4)c3cc2Cl)C(=O)N1Cc1ccccc1` (stereo not shown) [Example 228, 1,3-dibenzyl-3-(6-chloro-1-(4-fluorophenyl)-1H-indazol-5-yl)pyrrolidine-2,5-dione], the pKi was 7.55.

The molecule `Cc1cc2c(cnn2-c2ccc(F)cc2)cc1C1(Cc2ccccc2)CCN(C(=O)c2csc(C(F)(F)F)n2)C1` (stereo not shown) [Example 229, (3-benzyl-3-(1-(4-fluorophenyl)-6-methyl-1H-indazol-5-yl)pyrrolidin-1-yl)(2-(trifluoromethyl)thiazol-4-yl)methanone] had a pKi of 6.68.

The molecule `COc1cc2c(cnn2-c2ccc(F)cc2)cc1C1(Cc2ccccc2)CCN(C(=O)c2cscn2)C1` (stereo not shown) [Example 230, (3-benzyl-3-(1-(4-fluorophenyl)-6-methoxy-1H-indazol-5-yl)pyrrolidin-1-yl)(thiazol-4-yl)methanone] had a negative logarithm of the Ki (pKi) of 7.13.

(Values after patent US11787780B2 (CORCEPT THERAPEUTICS INCORPORATED, priority 2020, dated 2023).)
